Earlier results in patent US5955321A, “Production and use of compositions comprising high concentrations of vitamin B12 activity” (Gist-Brocades, priority 1996, dated 1999).

Conditions: for stability to light: in isolated form

Row | Molecule | stability in aqueous solution | stability to light
1 | 5'desoxyadenosylcobalamin | easily transformed to hydroxocobalamin | unstable to light
2 | C/C1=C2/[N-][C@H]([C@H](CC(N)=O)[C@@]2(C)CCC(=O)NC[C@@H](C)OP(=O)([O-])O[C@H]2[C@@H](O)[C@@H](n3cnc4cc(C)c(C)cc43)O[C@@H]2CO)[C@]2(C)N=C(/C(C)=C3N=C(/C=C4N=C1[C@@H](CCC(N)=O)C\4(C)C)[C@@H](CCC(N)=O)[C@]\3(C)CC(N)=O)[C@@H](CCC(N)=O)[C@]2(C)CC(N)=O.[CH3-].[Co+3] [methylcobalamin] | easily transformed to hydroxocobalamin | unstable to light
